Experimental data: patent publication US5962525A, “6,7-disubstituted-2-aminotetralines active as immunomodulators and pharmaceutical compositions containing same” (Sigma-Tau, priority 1990, dated 1999)
“And” between values parts separate entries of the source, which are not always exact repeats. Identical values can stand only once. Like-named read-outs stand apart in the source and are kept apart here.

Key:
[1] = tested on: peritoneal macrophages of treated mice; target tumor cells; experiment: "In vitro-ex vivo" effect on the cytostatic activity of peritoneal macrophages; parameters: species or system mouse (B6 D2 F1); tumor targets human
Procedure: Assessment of the "in vitro-ex vivo" effect of ST 557, ST 563 and ST 570 on the cytostatic activity of peritoneal macrophages
Male B6 D2 F1 mice aged 7-9 weeks (5 animals per group) were used.
The compounds were administered i.p. (25 mg/kg/day), ST 557 and ST 563 were also administered per os (100 mg/kg/day) from day -5 to day -1 (peritoneal cell harvesting at day 0).
The macrophages and target tumor cell lines were prepared as in test 1 and their concentrations were adjusted to 1×10^6 M/ml and 5×10^4 cell/ml, respectively.
Volumes of tumor cells were added to the macrophage preparations so as to obtain Effector/Target ratios of 10:1, 20:1 and 40:1.
Each sample was pulsed with ^3 H-TdR for 18 hours in order to label the tumor cells, which were then collected on filters and counted in a beta-counter.
The macrophage cytostatic activity is expressed as percentage inhibition of tumor cell replication, by assessing the radioactivity incorporated by the tumor cells in each sample with respect to the maximum radioactivity incorporated by a sample consisting of tumor cells only. [formula]

[2] = Tolerability after oral or intravenous administration; parameters: species or system mouse (Swiss albino); settings: mouse, in vivo, 7 days observation, read-out: Tolerability, dose
Procedure: The test was conducted in male Swiss albino mice weighing 22-24 g.
A group of animals (4 animals/dose) which had been kept fasting for 18 hours, were orally administered the compounds ST 557, ST 563, ST 564 and ST 570 dissolved in twice distilled water.
A further group of animals, which had free access to food and water, were administered intravenously the same compounds dissolved in saline it pH 7. All the animals were kept under observation for 7 days.

splenocytes = experiment: "In vitro-ex vivo" effect on the mytogen (PHA, LPS)-induced splenocyte proliferation in mice; parameters: species or system mouse (B6 D2 F1); settings: 25 mg/kg/day i.p.
Procedure: Assessment of the "in vitro-ex vivo" effect of ST 557, ST 563, ST 608 on the mytogen (PHA, LPS)-induced splenocyte proliferation in mice
Male B6 D2 F1 mice aged 6-10 weeks (4 animals per group) were used.
The compounds were administered i.p. 25 mg/kg/day, from day -5 to -1 (spleen excision at day 0).
PHA (active on T lymphocytes) and LPS (active on B lymphocytes) were used as mytogens. Each mytogen was tested at three different concentrations (suboptimal, optimal, superoptimal): 0.5, 4 and 6 mcg/ml/well and 0.5, 150 and 500 mcg/ml/well, respectively.
The experimental procedure was conducted substantially as described by Kirchner et al., "Splenic suppressor macrophages induced in mice by injection of C. parvum", J. Immunol., 1975, 115: 1212.
In particular, the cell suspensions obtained from the spleens of the animals of the same group were pooled and the cell concentration was adjusted to 5×10^6 cells/ml.
To volumes of 0.1 ml of each sample, equal volumes of the mytogen preparations were added so as to obtain, for each mytogen, the previously indicated final concentrations.
Each sample was prepared in triplicate in U-bottom microtiters. A control, to which 0.1 ml of medium were added instead of the mytogen, was also prepared. The control permits the extent of spontaneous proliferation in the absence of stimulation to be assessed.
The samples were incubated at 37° C. for 48 hours and then they were pulsed with 20 μl ^3 H-TdR (25 μCi/ml).
After 18 hours of further incubation, the cells were collected on filters and counted in a beta-counter.
The results of each sample are expressed by calculating the value of the area under the curve (AUC) obtained by plotting the values of the incorporated radioactivity (in cpm) versus the various concentrations of each mytogen.
In addition to AUC, the stimulation index (SI) is also considered, that is defined as follows. [formula]

[3] = tested on: murine peritoneal macrophages; tumor targets Daudi and CEM-CM3; experiment: "In vitro-ex vivo" effect on the cytotoxic activity of peritoneal macrophages (lysis of 3H-TdR labelled tumor cells); parameters: species or system mouse (B6 D2 F1, C57B16); tumor targets human
Procedure: Assessment of the "in vitro-ex vivo" effect of ST 557, ST 563, ST 570 and ST 626 on the cytotoxic activity of peritoneal macrophages (M)
Male hybrid B6 D2 F1 aged 7-9 weeks and male inbred mice C57B16 aged 8 weeks were used (4 animals/group).
All the compounds were administered i.p. (25 mg/kg/day). ST 557 was also administered per os (100 mg/kg/day) from day -5 to day -1 (peritoneal exudate cell [PEC] harvesting at day 0).
PEC were obtained from sacrificed animals, 24 hours following the end of treatment, via repeated washings of the abdominal cavity. The peritoneal exudates obtained from each group of animals were pooled.
The macrophage percentage was assessed by counting in a Burker chamber; cell suspensions (concentration=2×10^6 M/ml) were prepared.
The macrophage cytotoxic activity was assessed using the following two tumor cell lines as targets: Daudi, derived from a human lymphoblastoma and CEM-CM3, derived from human lymphoblastic leukemia (both lines are disclosed in ATCC--American Type Culture Collection--Cell lines of hybridoma, 5th Ed.--1985).
The experimental procedure is substantially the same as that described by Herscowitz, H. B. (1981)--Manual of Macrophage Methodology. Dekker M, Editor.
In particular, samples of cell lines were labelled with ^3 H-TdR (tritiated thymidine) and their concentration was adjusted to 5×10^4 cells/ml. They were then added to the macrophage preparations (using 96-well microtiter plates) and the volumes were adjusted so as to obtain Effector (macrophage)/Target (tumor cell) ratios of 20:1; 40:1 and 80:1 in an overall volume of 0.3 ml/well.
Three replicates for each sample were prepared; after 48 and 72 hours of incubation at 37° C. in 5% CO2. Aliquots of 0.1 ml of supernatant were drawn out from each well and counted in a β-counter.
The macrophage cytotoxic activity results in a tumor cell lysis that causes the release of the radioactivity incorporated by the cells into the supernatant.
Based on the βeta-counter data (in cpm) this activity is expressed as the percentage of radioactivity released following lysis with respect to the radioactivity incorporated by the tumor cells.
The relevant formulas are as follows: [formula]
The measures carried out on the samples account for a certain degree of lysis occurring spontaneously in cultured tumor cells not exposed to macrophages. Total radioactivity incorporated by the tumor cells is calculated by conducting a lysis with 1% SDS in distilled water.

[4] = 48 hours, E/T 20:1, 25 mg/kg/day i.p., B6 D2 F1
[5] = 48 hours, E/T 20:1, 25 mg/kg/day i.p., repeated experiment, B6 D2 F1
[6] = 48 hours, E/T 40:1, 25 mg/kg/day i.p., B6 D2 F1
[7] = 48 hours, E/T 40:1, 25 mg/kg/day i.p., repeated experiment, B6 D2 F1
[8] = 48 hours, E/T 80:1, 25 mg/kg/day i.p., repeated experiment, B6 D2 F1
[9] = 72 hours, E/T 20:1, 25 mg/kg/day i.p., B6 D2 F1
[10] = 72 hours, E/T 20:1, 25 mg/kg/day i.p., repeated experiment, B6 D2 F1
[11] = 72 hours, E/T 40:1, 25 mg/kg/day i.p., B6 D2 F1
[12] = 72 hours, E/T 40:1, 25 mg/kg/day i.p., repeated experiment, B6 D2 F1
[13] = 72 hours, E/T 80:1, 25 mg/kg/day i.p., repeated experiment, B6 D2 F1

Row | SMILES | % of inhibition of target tumor growth ([1]; E/T 10:1, 100 mg/kg/day os) [%] | % of inhibition of target tumor growth ([1]; E/T 20:1, 25 mg/kg/day i.p.) [%] | % of inhibition of target tumor growth ([1]; E/T 20:1, 100 mg/kg/day os) [%] | % of inhibition of target tumor growth ([1]; E/T 40:1, 25 mg/kg/day i.p.) [%] | % of inhibition of target tumor growth ([1]; E/T 40:1, 100 mg/kg/day os) [%] | MTD at 168 h ([2]; iv) [mg/kg] | MTD at 168 h ([2]; po, os, fasting 18 hours) [mg/kg] | S.I. (stimulation index) (splenocytes; LPS) | S.I. (stimulation index) (splenocytes; PHA) | % lysis of tumor target [3, 4] [%] | % lysis of tumor target [3, 5] [%] | % lysis of tumor target [3, 6] [%] | % lysis of tumor target [3, 7] [%] | % lysis of tumor target [3, 8] [%] | % lysis of tumor target [3, 9] [%] | % lysis of tumor target [3, 10] [%] | % lysis of tumor target [3, 11] [%] | % lysis of tumor target [3, 12] [%] | % lysis of tumor target [3, 13] [%] | other results
1 | COc1cc2c(cc1OC)CC(N(CC1CC1)CC1CC1)CC2 (stereo not shown) [ST 557, 2-[(N,N-dicyclopropylmethyl)amino]-6,7-dimethoxytetraline] | 24.3 ± 2.2 | 45.1 ± 1.1 | 38.7 ± 1.6 | 68.9 ± 1.4 | 62.8 ± 3.1 | > 4 | > 20 | 1.22 and 1.15 | 1.27 and 1.13 and 1.73 | 10.7 ± 0.2 | 7.8 ± 0.7 | 24.6 ± 0.8 | 13.2 ± 0.7 | 32.4 ± 0.9 | 13.1 ± 0.3 | 13.0 ± 0.7 | 29.3 ± 0.9 | 18.7 ± 0.9 | 45.3 ± 0.9 | AUC (area under curve, incorporated radioactivity vs mytogen concentration) (splenocytes; LPS): 10312 ± 1253 ×10^-3 and 18914 ± 389 ×10^-3; % lysis of tumor target ([3]; 48 hours, E/T 20:1, 25 mg/kg/day i.p., repeated experiment, C57B16 mice): 10.8 ± 0.6%; % lysis of tumor target ([3]; 48 hours, E/T 20:1, 100 mg/kg/day os, B6 D2 F1): 22.7 ± 0.6%; % lysis of tumor target ([3]; 48 hours, E/T 40:1, 25 mg/kg/day i.p., repeated experiment, C57B16 mice): 16.4 ± 0.8%; % lysis of tumor target ([3]; 48 hours, E/T 40:1, 100 mg/kg/day os, B6 D2 F1): 30.1 ± 0.7%; % lysis of tumor target ([3]; 48 hours, E/T 80:1, 25 mg/kg/day i.p., repeated experiment, C57B16 mice): 28.3 ± 0.5%; % lysis of tumor target ([3]; 48 hours, E/T 80:1, 100 mg/kg/day os, B6 D2 F1): 29.7 ± 0.9%; % lysis of tumor target ([3]; 72 hours, E/T 20:1, 25 mg/kg/day i.p., repeated experiment, C57B16 mice): 11.9 ± 0.7%; % lysis of tumor target ([3]; 72 hours, E/T 20:1, 100 mg/kg/day os, B6 D2 F1): 29.7 ± 1.2%; % lysis of tumor target ([3]; 72 hours, E/T 40:1, 25 mg/kg/day i.p., repeated experiment, C57B16 mice): 11.9 ± 0.4%; % lysis of tumor target ([3]; 72 hours, E/T 40:1, 100 mg/kg/day os, B6 D2 F1): 41.5 ± 1.3%; % lysis of tumor target ([3]; 72 hours, E/T 80:1, 25 mg/kg/day i.p., repeated experiment, C57B16 mice): 30.9 ± 0.1%; % lysis of tumor target ([3]; 72 hours, E/T 80:1, 100 mg/kg/day os, B6 D2 F1): 44.4 ± 0.3%
2 | COc1cc2c(cc1OC)CC(NCC(O)c1ccc(C)cc1)CC2 (stereo not shown) [ST 563, 2-[(N-2-hydroxy-2-(4-methylphenyl)ethyl)amino]-6,7-dimethoxytetraline] | 25.0 ± 4.9 | 35.0 ± 1.6 | 47.3 ± 0.6 | 55.7 ± 1.4 | 62.8 ± 3.1 | > 20 | > 50 | 1.13 and 0.95 | 1.09 and 1.28 and 1.12 | 9.1 ± 0.2 | 7.7 ± 0.6 | 15.4 ± 0.2 | 9.4 ± 0.7 | 16.0 ± 1.0 | 11.0 ± 0.1 | 12.7 ± 0.5 | 18.3 ± 0.1 | 14.9 ± 0.9 | 22.2 ± 1.4 | AUC (area under curve, incorporated radioactivity vs mytogen concentration) (splenocytes; PHA): 179 ± 3 ×10^-3 and 256 ± 21 ×10^-3 and 139 ± 5 ×10^-3
